Calls of active or inactive are those of the source. No cut-off for these calls is given here.
Key:
Huh-7 [1] = experiment: Induction of autophagic flux in human Huh-7 cells assessed as rescue of LC3-I accumulation at 10 uM incubated for 48 hrs in presence of gamabufotalin by Western blot analysis; format: functional, cell-based
Huh-7 [2] = experiment: Induction of autophagic flux in human Huh-7 cells assessed as rescue of LC3-II accumulation at 10 uM incubated for 48 hrs in presence of gamabufotalin by Western blot analysis; format: functional, cell-based
Huh-7 [3] = experiment: Induction of autophagic flux in human Huh-7 cells assessed as rescue of p62 at 10 uM incubated for 48 hrs in presence of gamabufotalin by Western blot analysis; format: functional, cell-based
Huh-7 [4] = experiment: Induction of autophagic flux in human Huh-7 cells harbouring mCherry-egfp-LC3 assessed as reduction in number of red puncta ratio at 10 nM incubated for 15 mins in presence of gamabufotalin by laser scanning confocal microscopic analysis; format: functional, cell-based
Hep 3B2 [5] = experiment: Induction of autophagic flux in human Hep3B cells harbouring mCherry-egfp-LC3 assessed as reduction in number of yellow puncta ratio at 10 nM incubated for 15 mins in presence of gamabufotalin by laser scanning confocal microscopic analysis; format: functional, cell-based
Hep 3B2 [6] = experiment: Induction of autophagic flux in human Hep3B cells harbouring mCherry-egfp-LC3 assessed as increase in yellow puncta ratio at 10 nM by fluorescence imaging based assay; format: functional, cell-based
Huh-7 [7] = experiment: Induction of apoptosis in human Huh-7 cells assessed as necrotic cells at 25 nM incubated for 48 hrs by Annexin V-FITC/PI staining based flow cytometry method (reference value: 1.0%); format: functional
Hep 3B2 [8] = experiment: Induction of autophagy in human Hep3B cells assessed as reduction in ULK1 phosphorylation level incubated for 48 hrs by immunoblot method; format: functional, cell-based; details: dose 0-25 nM
Huh-7 [9] = experiment: Induction of apoptosis in human Huh-7 cells assessed as early apoptotic cells at 25 nM incubated for 48 hrs by Annexin V-FITC/PI staining based flow cytometry method (reference value: 2.8%); format: functional
Hep 3B2 [10] = experiment: Inhibition of colony formation in human Hep3B cells at upto 25 uM incubated for 48 hrs by crystal violet staining based analysis; format: functional, cell-based
Huh-7 [11] = experiment: Induction of apoptosis in human Huh-7 cells assessed as late apoptotic cells at 25 nM incubated for 48 hrs in presence of 4,6-dimorpholino-N-(4-nitrophenyl)-1,3,5-triazin-2-amine by Annexin V-FITC/PI staining based flow cytometry method (reference value: 3.8%); format: functional
Huh-7 [12] = experiment: Induction of autophagic flux in human Huh-7 cells assessed as rescue of LC3-II accumulation at 25 uM incubated for 48 hrs in presence of chloroquine by Western blot analysis; format: functional, cell-based
Hep 3B2 [13] = experiment: Induction of apoptosis in human Hep3B cells assessed as necrotic cells at 25 nM measured after 48 hrs by annexin V-FITC/Propidium iodide staining based flow cytometric analysis (reference value: 0.3%); format: functional
[14] = Toxicity in mouse assessed as effect on lungs at 5 mg/kg,ip administered every second day for 3 weeks by H and E staining based microscopic method; format: organism-based; details: in vivo, 504 h
Huh-7 [15] = experiment: Induction of apoptosis in human Huh-7 cells assessed as early apoptotic cells at 25 nM incubated for 48 hrs in presence of chloroquine by Annexin V-FITC/PI staining based flow cytometry method (reference value: 2.8%); format: functional
Hep 3B2 [16] = experiment: Induction of apoptosis in human Hep3B cells assessed as viable cells at 25 nM measured after 48 hrs in presence of Z-VAD-FMK by annexin V-FITC/Propidium iodide staining based flow cytometric analysis (reference value: 95.6%); format: functional; details: read-out: Activity
Hep 3B2 [17] = experiment: Induction of apoptosis in human Hep3B cells assessed as necrotic cells at 25 nM incubated for 48 hrs in presence of 4,6-dimorpholino-N-(4-nitrophenyl)-1,3,5-triazin-2-amine by Annexin V-FITC/PI staining based flow cytometry method (reference value: 0.7%); format: functional
Huh-7 [18] = experiment: Induction of apoptosis in human Huh-7 cells assessed as reduction in Bcl-2 level at 25 nM incubated for 48 hrs in presence of chloroquine by immunoblot analysis; format: functional, cell-based
Huh-7 [19] = experiment: Induction of apoptosis in human Huh-7 cells assessed as necrotic cells at 25 nM measured after 48 hrs by annexin V-FITC/Propidium iodide staining based flow cytometric analysis (reference value: 0.0%); format: functional
[20] = Toxicity in mouse assessed as effect on heart at 5 mg/kg,ip administered every second day for 3 weeks by H and E staining based microscopic method; format: organism-based; details: in vivo, 504 h
Hep 3B2 [21] = experiment: Induction of apoptosis in human Hep3B cells assessed as […] expression at upto 25 nM incubated for 48 hrs by Western blot analysis; format: functional, cell-based
Hep 3B2 [22] = experiment: Induction of autophagy in human Hep3B cells assessed as reduction in autophagic vesicles at 25 nM incubated for 48 hrs in presence of 4,6-dimorpholino-N-(4-nitrophenyl)-1,3,5-triazin-2-amine by transmission electron microscopy based analysis; format: functional, cell-based
Hep 3B2 [23] = experiment: Induction of apoptosis in human Hep3B cells assessed as necrotic cells at 25 nM incubated for 48 hrs in presence of chloroquine by Annexin V-FITC/PI staining based flow cytometry method (reference value: 1.2%); format: functional
Huh-7 [24] = experiment: Induction of apoptosis in human Huh-7 cells assessed as early apoptotic cells at 25 nM measured after 48 hrs in presence of z-VAD-FMK by annexin V-FITC/Propidium iodide staining based flow cytometric analysis (reference value: 2.2%); format: functional
Huh-7 [25] = experiment: Induction of autophagic flux in human Huh-7 cells assessed as increase in LC3-II expression at upto 25 nM incubated for 48 hrs by Western blot analysis; format: functional, cell-based
Huh-7 [26] = experiment: Induction of autophagy in human Huh-7 cells harbouring mCherry-egfp-LC3 assessed as reduction in yellow puncta ratio at 25 nM incubated for 15 mins in presence of 4,6-dimorpholino-N-(4-nitrophenyl)-1,3,5-triazin-2-amine by laser scanning confocal microscopic analysis; format: functional, cell-based
Huh-7 [27] = experiment: Induction of apoptosis in human Huh-7 cells assessed as upregulation of PARP level […] incubated for 48 hrs in presence of 4,6-dimorpholino-N-(4-nitrophenyl)-1,3,5-triazin-2-amine by immunoblot analysis; format: functional, cell-based
Huh-7 [28] = experiment: Induction of apoptosis in human Huh-7 cells assessed as necrotic cells at 25 nM incubated for 48 hrs by Annexin V-FITC/PI staining based flow cytometry method (reference value: 95.4%); format: functional
Huh-7 [29] = experiment: Induction of apoptosis in human Huh-7 cells assessed as increase in caspase-3 level at 25 nM incubated for 48 hrs in presence of chloroquine by immunoblot analysis; format: functional, cell-based
Huh-7 [30] = experiment: Induction of apoptosis in human Huh-7 cells assessed as viable cells at 25 nM incubated for 48 hrs by Annexin V-FITC/PI staining based flow cytometry method (reference value: 91.5%); format: functional; details: read-out: Activity
Hep 3B2 [31] = experiment: Induction of autophagy in human Hep3B cells assessed as restoration of mTOR phosphorylation expression at 25 uM incubated for 48 hrs in presence of 4,6-dimorpholino-N-(4-nitrophenyl)-1,3,5-triazin-2-amine by immunoblot analysis; format: functional, cell-based
Hep 3B2 [32] = experiment: Induction of autophagic flux in human Hep3B cells harbouring mCherry-egfp-LC3 assessed as increase in yellow puncta at 25 nM incubated for 15 mins by laser scanning confocal microscopic analysis; format: functional, cell-based

CCN(CC)CCCC(C)Nc1ccnc2cc(Cl)ccc12 (configuration not stated) [CHLOROQUINE]
Activity (Huh-7 [1]): Active | Activity (Huh-7 [2]): Active | Activity (Huh-7 [3]): Active | Activity (Huh-7 [4]): Active | Activity (Hep 3B2 [5]): Active | Activity (Hep 3B2 [6]): Active

C[C@]12CC[C@H](O)C[C@H]1CC[C@@H]1[C@@H]2[C@H](O)C[C@]2(C)[C@@H](c3ccc(=O)oc3)CC[C@]12O [GAMABUFOTALIN]
Activity (Huh-7 [7]): 1.1% | Activity (Hep 3B2 [8]): Dose-Dependent Effect | Activity (Huh-7 [9]): 8.7% | inhibition (Hep 3B2 [10]): Active | Activity (Huh-7 [11]): 6.6% | Activity (Huh-7 [12]): Active | Activity (Hep 3B2 [13]): 0.6% | Activity [14]: Non-Toxic | Activity (Huh-7 [15]): 12.1% | viability at 0.025 µM (Hep 3B2 [16]): 91.9% | Activity (Hep 3B2 [17]): 1.7% | Activity (Huh-7 [18]): Active | Activity (Huh-7 [19]): 1.2% | Activity [20]: Non-Toxic | Activity (Hep 3B2 [21]): Active | Activity (Hep 3B2 [22]): Active | Activity (Hep 3B2 [23]): 0.8% | Activity (Huh-7 [24]): 3.3% | Activity (Huh-7 [25]): Active | Activity (Huh-7 [26]): Active | Activity (Huh-7 [27]): Active | Activity (Huh-7 [28]): 57.1% | Activity (Huh-7 [29]): Active | viability at 0.025 µM (Huh-7 [30]): 80% | Activity (Hep 3B2 [31]): Active | Activity (Hep 3B2 [32]): Active
